Assay results reported in PubChem BioAssay (NCI).
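Cells were grown in 96-well plates and exposed to each compound for 48 hours at five concentrations; endpoints were interpolated linearly between bracketing concentrations, or set to the highest concentration if not reached. At the TGI there is no net growth.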

Key:
Test in all cases: NCI-60 cell line screen, 48 h
786-0 renal = test system: 786-0 renal
A498 renal = test system: A498 renal
A549 NSCLC = test system: A549 NSCLC
ACHN renal = test system: ACHN renal
CAKI-1 renal = test system: CAKI-1 renal
CCRF-CEM leukemia = test system: CCRF-CEM leukemia
COLO 205 colon = test system: COLO 205 colon
DU-145 prostate = test system: DU-145 prostate
EKVX NSCLC = test system: EKVX NSCLC
HCC-2998 colon = test system: HCC-2998 colon
HCT-116 colon = test system: HCT-116 colon
HCT-15 colon = test system: HCT-15 colon
HL-60(TB) leukemia = test system: HL-60(TB) leukemia
HOP-62 NSCLC = test system: HOP-62 NSCLC
HOP-92 NSCLC = test system: HOP-92 NSCLC
HS 578T breast = test system: HS 578T breast
HT29 colon = test system: HT29 colon
IGROV1 ovarian = test system: IGROV1 ovarian
K-562 leukemia = test system: K-562 leukemia
KM12 colon = test system: KM12 colon
LOX IMVI melanoma = test system: LOX IMVI melanoma
M14 melanoma = test system: M14 melanoma
MCF7 breast = test system: MCF7 breast
MDA-MB-231 breast = test system: MDA-MB-231 breast
MDA-MB-435 = test system: MDA-MB-435
MDA-N = test system: MDA-N
MOLT-4 leukemia = test system: MOLT-4 leukemia
NCI-H226 lung = test system: NCI-H226 lung
NCI-H23 lung = test system: NCI-H23 lung
NCI-H460 lung = test system: NCI-H460 lung
NCI-H522 lung = test system: NCI-H522 lung
NCI/ADR-RES ovarian = test system: NCI/ADR-RES ovarian
OVCAR-3 ovarian = test system: OVCAR-3 ovarian
OVCAR-5 ovarian = test system: OVCAR-5 ovarian
OVCAR-8 ovarian = test system: OVCAR-8 ovarian
PC-3 prostate = test system: PC-3 prostate
RPMI-8226 leukemia = test system: RPMI-8226 leukemia
RXF 393 renal = test system: RXF 393 renal
SF-268 CNS = test system: SF-268 CNS
SF-295 CNS = test system: SF-295 CNS
SF-539 CNS = test system: SF-539 CNS
SK-MEL-28 melanoma = test system: SK-MEL-28 melanoma
SK-MEL-5 melanoma = test system: SK-MEL-5 melanoma
SK-OV-3 ovarian = test system: SK-OV-3 ovarian
SN12C renal = test system: SN12C renal
SNB-75 CNS = test system: SNB-75 CNS
SR leukemia = test system: SR leukemia
SW-620 colon = test system: SW-620 colon
T-47D breast = test system: T-47D breast
TK-10 renal = test system: TK-10 renal
U251 CNS = test system: U251 CNS
UACC-257 melanoma = test system: UACC-257 melanoma
UACC-62 melanoma = test system: UACC-62 melanoma
UO-31 renal = test system: UO-31 renal
MALME-3M melanoma = test system: MALME-3M melanoma
OVCAR-4 ovarian = test system: OVCAR-4 ovarian
SK-MEL-2 melanoma = test system: SK-MEL-2 melanoma
SNB-19 CNS = test system: SNB-19 CNS

O=[N+]([O-])/C=C1\COCc2cc3c(cc21)OCO3
TGI (786-0 renal): 44.3 µM | TGI (A498 renal): 42 µM | TGI (A549 NSCLC): 39.8 µM | TGI (ACHN renal): 43.3 µM | TGI (CAKI-1 renal): 25.7 µM | TGI (CCRF-CEM leukemia): 39.1 µM | TGI (COLO 205 colon): 42 µM | TGI (DU-145 prostate): 37.4 µM | TGI (EKVX NSCLC): 74.7 µM | TGI (HCC-2998 colon): 32.9 µM | TGI (HCT-116 colon): 39.6 µM | TGI (HCT-15 colon): 36.2 µM | TGI (HL-60(TB) leukemia): 57.4 µM | TGI (HOP-62 NSCLC): > 100 µM | TGI (HOP-92 NSCLC): > 100 µM | TGI (HS 578T breast): 80.7 µM | TGI (HT29 colon): 67.2 µM | TGI (IGROV1 ovarian): > 100 µM | TGI (K-562 leukemia): > 100 µM | TGI (KM12 colon): 28.4 µM | TGI (LOX IMVI melanoma): 71.5 µM | TGI (M14 melanoma): 26.9 µM | TGI (MCF7 breast): 35.8 µM | TGI (MDA-MB-231 breast): 29.8 µM | TGI (MDA-MB-435): 28.2 µM | TGI (MDA-N): 40.4 µM | TGI (MOLT-4 leukemia): > 100 µM | TGI (NCI-H226 lung): 57.6 µM | TGI (NCI-H23 lung): 27.1 µM | TGI (NCI-H460 lung): 93.8 µM | TGI (NCI-H522 lung): 40.2 µM | TGI (NCI/ADR-RES ovarian): 43.4 µM | TGI (OVCAR-3 ovarian): 35.9 µM | TGI (OVCAR-5 ovarian): 43.4 µM | TGI (OVCAR-8 ovarian): 84.4 µM | TGI (PC-3 prostate): 25.6 µM | TGI (RPMI-8226 leukemia): 68.5 µM | TGI (RXF 393 renal): 38.9 µM | TGI (SF-268 CNS): 67 µM | TGI (SF-295 CNS): > 100 µM | TGI (SF-539 CNS): 52.4 µM | TGI (SK-MEL-28 melanoma): 34.2 µM | TGI (SK-MEL-5 melanoma): 39.9 µM | TGI (SK-OV-3 ovarian): > 100 µM | TGI (SN12C renal): 47.2 µM | TGI (SNB-75 CNS): 38.9 µM | TGI (SR leukemia): 61.4 µM | TGI (SW-620 colon): 47.4 µM | TGI (T-47D breast): 46 µM | TGI (TK-10 renal): 50 µM | TGI (U251 CNS): 36.5 µM | TGI (UACC-257 melanoma): 40.9 µM | TGI (UACC-62 melanoma): 51.8 µM | TGI (UO-31 renal): 34.7 µM

CCOC(=O)c1c(N2CCCC2)nsc1Nc1ccccc1
TGI (786-0 renal): > 100 µM | TGI (A498 renal): > 100 µM | TGI (A549 NSCLC): > 100 µM | TGI (ACHN renal): > 100 µM | TGI (CAKI-1 renal): > 100 µM | TGI (CCRF-CEM leukemia): > 100 µM | TGI (COLO 205 colon): > 100 µM | TGI (DU-145 prostate): > 100 µM | TGI (EKVX NSCLC): > 100 µM | TGI (HCC-2998 colon): > 100 µM | TGI (HCT-116 colon): > 100 µM | TGI (HCT-15 colon): > 100 µM | TGI (HL-60(TB) leukemia): > 100 µM | TGI (HOP-92 NSCLC): > 100 µM | TGI (HS 578T breast): > 100 µM | TGI (HT29 colon): > 100 µM | TGI (IGROV1 ovarian): > 100 µM | TGI (K-562 leukemia): > 100 µM | TGI (KM12 colon): > 100 µM | TGI (LOX IMVI melanoma): > 100 µM | TGI (M14 melanoma): > 100 µM | TGI (MALME-3M melanoma): > 100 µM | TGI (MDA-MB-231 breast): > 100 µM | TGI (MDA-N): > 100 µM | TGI (MOLT-4 leukemia): > 100 µM | TGI (NCI-H226 lung): > 100 µM | TGI (NCI-H23 lung): > 100 µM | TGI (NCI-H460 lung): > 100 µM | TGI (NCI/ADR-RES ovarian): > 100 µM | TGI (OVCAR-4 ovarian): > 100 µM | TGI (OVCAR-5 ovarian): > 100 µM | TGI (OVCAR-8 ovarian): > 100 µM | TGI (PC-3 prostate): > 100 µM | TGI (RPMI-8226 leukemia): > 100 µM | TGI (RXF 393 renal): > 100 µM | TGI (SF-268 CNS): > 100 µM | TGI (SF-295 CNS): > 100 µM | TGI (SF-539 CNS): > 100 µM | TGI (SK-MEL-2 melanoma): > 100 µM | TGI (SK-MEL-28 melanoma): > 100 µM | TGI (SK-MEL-5 melanoma): > 100 µM | TGI (SN12C renal): > 100 µM | TGI (SNB-19 CNS): > 100 µM | TGI (SNB-75 CNS): > 100 µM | TGI (SR leukemia): > 100 µM | TGI (SW-620 colon): > 100 µM | TGI (T-47D breast): > 100 µM | TGI (TK-10 renal): > 100 µM | TGI (UACC-257 melanoma): > 100 µM | TGI (UO-31 renal): > 100 µM
